Counter-ions that a name gives are not always drawn. Like-named read-outs stand apart in the source and are kept apart here.
Molecular target: MetJ dimer–DNA complex (F-metC) (Escherichia coli, UniProt P0A8U6)
Assay: Fluorescence anisotropy assay: MetJ titrated into F-metC DNA and ligand, MetJ dimer–DNA complex formation
Type: binding
Conditions: for EC50: F-metC 10 nM, read-out: EC50, concentration of MetJ monomer required to promote half-maximal formation of its complex with the F-metC DNA; for Fold-improvement over monovalent control 11: unquaternised bivalent ligand 1 mM vs 11 at 2 mM; for Fold-improvement over monovalent control 4: ligands 2 mM
From the text: A fluorescence anisotropy-based binding assay was used to compare the relative ability of SAM analogues to promote MetJ dimer–DNA complex formation. Since SAM has low affinity for MetJ in the absence of DNA,[8,13] measurements were made in the presence of the DNA fragment F-metC, a fluorescently-labeled analogue of the shortest naturally occurring operator sequence, metC.[14] Titration of MetJ into a solution containing fixed concentrations of F-metC and ligand allows the change in anisotropy related to ternary complex formation to be measured (Fig. 5).
Figure 5 Cartoon illustrating the fluorescence anisotropy assay. The SAM molecules promote the formation of a SAM–F-metC–protein complex, with two MetJ dimers bound to the 18 base-pair DNA duplex.
The half-maximal concentration of MetJ, EC50, required to promote complex formation was determined for each ligand. […] The monovalent ligands 11 and 12 (2 mM) and the bivalent ligands 9 and 10 (1 mM) all promoted the formation of the MetJ–DNA complex (Table 1). […] The unquaternised bivalent ligands 9a–e (1 mM) promoted complex formation up to about threefold more effectively than the corresponding monovalent analogue 11. Similarly, the quaternised bivalent ligands 10a and 10b promoted, respectively, complex formation 2.4- and 3.6-fold more effectively than the quaternised monovalent analogue 12.
Analysis of novel SAM analogues binding to MetJ in the presence of operator DNA was carried out using fluorescence anisotropy. Fluorescence anisotropy experiments were performed on a Spex Fluorolog Tau spectrofluorometer (HORIBA Jobin Yvon) controlled by Datamax software. The excitation and emission wavelengths were set to 488 nm and 517 nm respectively. Slit widths were set to 5 nm and all experiments were carried out at 19 °C. The detector integration time was 5 seconds and three readings were taken of each sample to obtain an average anisotropy. Free anisotropy values were 0.051-0.060. Increase in fluorescence anisotropy was observed upon titration of MetJ into a solution of F-metC (10 nM) with and without ligand ([…]) in TK buffer pH 7.6 (50 mM Trizma hydrochloride pH 7.6, 100 mM KCl) with a total starting volume of 200 µL. […] The final DMSO concentration was 2% or less. After each addition, the sample was mixed with a pipette and left to equilibrate for five minutes before the fluorescence anisotropy readings were acquired. The intensity of linear and perpendicular light, compared to the excitation light is measured experimentally and the anisotropy was calculated using the following equation:‖
The data was fitted to a sigmoidal growth logistic model using the following equation: […]
Where A1 refers to the initial value, A2 refers to the final value, x0 refers to the centre and p is a value relating to the slope of the transition. Errors refer the standard deviation of three titration repeats. An arbitrary weighting function with the following equation was employed: […]

[1] = monovalent ligand 2 mM, DMSO 2%, average of three titrations
[2] = quaternised ligands 2 mM, average of three titrations
[3] = bivalent ligand 1 mM, DMSO 2%, average of three titrations
[4] = unquaternised ligands 2 mM, average of three titrations

Sequence of MetJ dimer–DNA complex (F-metC) (P0A8U6 2-105, one chain of several): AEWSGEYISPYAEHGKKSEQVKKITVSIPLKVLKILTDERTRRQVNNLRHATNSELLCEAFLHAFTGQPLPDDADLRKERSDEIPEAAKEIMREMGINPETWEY

## C[N+](C)(CC[C@H](N)C(=O)NCc1ccccc1)C[C@H]1O[C@@H](n2cnc3c(N)ncnc32)[C@H](O)[C@@H]1O [Compound 12, 5′-[{(3′′S)-4′′-Benzylamino-3′′-amino-4′′-oxobutyl}dimethylamino]-5′-deoxyadenosine iodide ditrifluoroacetic acid salt]
[1]
  EC50: 0.036 ± 0.006 µM

## C[N+](C)(CCCC(=O)NCCCCn1nnc2c1CCCCCC2OCCNC(=O)CCC[N+](C)(C)C[C@H]1O[C@@H](n2cnc3c(N)ncnc32)[C@H](O)[C@@H]1O)C[C@H]1O[C@@H](n2cnc3c(N)ncnc32)[C@H](O)[C@@H]1O.[I-].[I-] (stereo partly drawn) [Compound 16b, 4-((Adenosyl)(dimethyl)amino)-N-(2-(1-(4-(4-((adenosyl) (dimethyl)amino)butanamido)butyl)-4,5,6,7,8,9-hexahydro-1H-cycloocta[d][1,2,3]triazol-4-yloxy)ethyl)butanamide diiodide and 4-(-((adenosyl)(dimethyl)amino)-N-(2-(1-(4-(4-(-((adenosyl)(dimethyl)amino)butanamido)butyl)-4,5,6,7,8,9-hexahydro-1H-cycloocta[d][1,2,3]triazol-9-yloxy)ethyl)butanamidediiodide]
Quaternised ligands 2 mM
  Fold-improvement over monovalent control 5: 3.6-fold
[2]
  EC50: 0.042 ± 0.003 µM

## CN(CC[C@H](N)C(=O)NCc1ccccc1-c1ccccc1CNC(=O)[C@@H](N)CCN(C)C[C@H]1O[C@@H](n2cnc3c(N)ncnc32)[C@H](O)[C@@H]1O)C[C@H]1O[C@@H](n2cnc3c(N)ncnc32)[C@H](O)[C@@H]1O [Compound 9c, N,N′-(Biphenyl-2,2′-diylybismethylene)bis{(2′′S)-2′′-amino-4′′-[5′′′-deoxy-5′′′-(methylamino)-adenosyl]butanamide}]
[3]
  EC50: 0.039 ± 0.001 µM
  Fold-improvement over monovalent control 11: 3.1-fold

## CN(CCCC(=O)NCCCNC(=O)CCCN(C)C[C@H]1O[C@@H](n2cnc3c(N)ncnc32)[C@H](O)[C@@H]1O)C[C@H]1O[C@@H](n2cnc3c(N)ncnc32)[C@H](O)[C@@H]1O [Compound 18b, N,N′-Di-[5′-deoxy-5′-N-methyl-N′-(4-butyryl)]-1,3-diaminopropane]
  Fold-improvement over monovalent control 4: 3.1-fold
[4]
  EC50: 0.32 ± 0.04 µM

## CN(CC[C@H](N)C(=O)NCc1ccccc1)C[C@H]1O[C@@H](n2cnc3c(N)ncnc32)[C@H](O)[C@@H]1O [Compound 11, 5′-[{(3′′S)-4′′-Benzylamino-3′′-amino-4′′-oxobutyl}methylamino]-5′-deoxyadenosine]
[1]
  EC50: 0.12 ± 0.01 µM

## CN(CCCC(=O)NCCCCn1nnc2c1CCCCCC2OCCNC(=O)CCCN(C)C[C@H]1O[C@@H](n2cnc3c(N)ncnc32)[C@H](O)[C@@H]1O)C[C@H]1O[C@@H](n2cnc3c(N)ncnc32)[C@H](O)[C@@H]1O (stereo partly drawn) [Compound 15b, 4-((Adenosyl)(methyl)amino)-N-(2-(1-(4-(4-((adenosyl) (methyl)amino)butanamido)butyl)-4,5,6,7,8,9-hexahydro-1H-cycloocta[d][1,2,3]triazol-4-yloxy)ethyl)butanamide and 4-(-((adenosyl)(methyl)amino)-N-(2-(1-(4-(4-(-((adenosyl)(methyl)amino)butanamido)butyl)-4,5,6,7,8,9-hexahydro-1H-cycloocta[d][1,2,3]triazol-9-yloxy)ethyl)butanamide]
[4]
  EC50: 0.076 ± 0.002 µM

## C[S+](CC[C@H](N)C(=O)[O-])C[C@H]1O[C@@H](n2cnc3c(N)ncnc32)[C@H](O)[C@@H]1O (stereo partly drawn) [SAM, 1, S-Adenosylmethionine]
SAM, ligand concentration not given, DMSO 2%
  EC50: 0.0173 ± 0.0003 µM

## CN(CC[C@H](N)C(=O)NCc1ccc(CNC(=O)[C@@H](N)CCN(C)C[C@H]2O[C@@H](n3cnc4c(N)ncnc43)[C@H](O)[C@@H]2O)cc1)C[C@H]1O[C@@H](n2cnc3c(N)ncnc32)[C@H](O)[C@@H]1O [Compound 9a, N,N′-(1,4-Phenylenebismethylene)bis{(2′S)-2′-amino-4′-[5′′-deoxy-5′′-(methylamino)-adenosyl]butanamide}]
[3]
  EC50: 0.061 ± 0.003 µM
  Fold-improvement over monovalent control 11: 2.0-fold

## CN(CC[C@H](N)C(=O)NCc1cccc(-c2cccc(CNC(=O)[C@@H](N)CCN(C)C[C@H]3O[C@@H](n4cnc5c(N)ncnc54)[C@H](O)[C@@H]3O)c2)c1)C[C@H]1O[C@@H](n2cnc3c(N)ncnc32)[C@H](O)[C@@H]1O [Compound 9d, N,N′-(Biphenyl-3,3′-diylybismethylene)bis{(2′′S)-2′′-amino-4′′-[5′′′-deoxy-5′′′-(methylamino)-adenosyl]butanamide}]
[3]
  EC50: 0.075 ± 0.004 µM
  Fold-improvement over monovalent control 11: 1.6-fold

## CN(CCCC(=O)NCCCCNC(=O)CCCN(C)C[C@H]1O[C@@H](n2cnc3c(N)ncnc32)[C@H](O)[C@@H]1O)C[C@H]1O[C@@H](n2cnc3c(N)ncnc32)[C@H](O)[C@@H]1O [Compound 18c, N,N′-Di-[5′-deoxy-5′-N-methyl-N′-(4-butyryl)-adenosine]-1,4-diaminobutane]
  Fold-improvement over monovalent control 4: 4.5-fold
[4]
  EC50: 0.22 ± 0.02 µM

## CN(CCCC(=O)NCCNC(=O)CCCN(C)C[C@H]1O[C@@H](n2cnc3c(N)ncnc32)[C@H](O)[C@@H]1O)C[C@H]1O[C@@H](n2cnc3c(N)ncnc32)[C@H](O)[C@@H]1O [Compound 18a, N,N′-Di-[5′-deoxy-5′-N-methyl-N′-(4-butyryl)-adenosine]-1,2-ethylenediamine]
  Fold-improvement over monovalent control 4: 1.4-fold
[4]
  EC50: 0.7 ± 0.05 µM

## C[N+](C)(CCCC(=O)NCCCNC(=O)CCC[N+](C)(C)C[C@H]1O[C@@H](n2cnc3c(N)ncnc32)[C@H](O)[C@@H]1O)C[C@H]1O[C@@H](n2cnc3c(N)ncnc32)[C@H](O)[C@@H]1O.[I-].[I-] [Compound 19b, N,N′-Dimethyl-N,N′-di-[5′-deoxy-5′-N-methyl-N′-(4-butyryl)-adenosine]-1,3-diaminopropane diiodide]
Quaternised ligands 2 mM
  Fold-improvement over monovalent control 5: 1.4-fold
[2]
  EC50: 0.108 ± 0.003 µM

## C[N+](C)(CCCC(=O)NCCCCCCNC(=O)CCC[N+](C)(C)C[C@H]1O[C@@H](n2cnc3c(N)ncnc32)[C@H](O)[C@@H]1O)C[C@H]1O[C@@H](n2cnc3c(N)ncnc32)[C@H](O)[C@@H]1O.[I-].[I-] [Compound 19d, N,N′-Dimethyl-N,N′-di-[5′-deoxy-5′-N-methyl-N′-(4-butyryl)-adenosine]-1,6-diaminohexane diiodide]
Quaternised ligands 2 mM
  Fold-improvement over monovalent control 5: 2.9-fold
[2]
  EC50: 0.051 ± 0.002 µM

## C[N+](C)(CC[C@H](N)C(=O)NCc1ccc(CNC(=O)[C@@H](N)CC[N+](C)(C)C[C@H]2O[C@@H](n3cnc4c(N)ncnc43)[C@H](O)[C@@H]2O)cc1)C[C@H]1O[C@@H](n2cnc3c(N)ncnc32)[C@H](O)[C@@H]1O [Compound 10a, N,N′-(1,4-Phenylenebismethylene)bis{(2′S)-2′-amino-4′-[5′′-deoxy-5′′-(dimethylamino)-adenosyl]butanamide}iodide tetratrifluoroacetic acid salt]
[3]
  EC50: 0.015 ± 0.005 µM

## C[N+](C)(CC[C@H](N)C(=O)NCc1cccc(CNC(=O)[C@@H](N)CC[N+](C)(C)C[C@H]2O[C@@H](n3cnc4c(N)ncnc43)[C@H](O)[C@@H]2O)c1)C[C@H]1O[C@@H](n2cnc3c(N)ncnc32)[C@H](O)[C@@H]1O [Compound 10b, N,N′-(1,3-Phenylenebismethylene)bis{(2′S)-2′-amino-4′-[5′′-deoxy-5′′-(dimethylamino)-adenosyl]butanamide}iodide tetratrifluoroacetic acid salt]
[3]
  EC50: 0.01 ± 0.001 µM

## CN(CC[C@H](N)C(=O)NCC#CC#CCNC(=O)[C@@H](N)CCN(C)C[C@H]1O[C@@H](n2cnc3c(N)ncnc32)[C@H](O)[C@@H]1O)C[C@H]1O[C@@H](n2cnc3c(N)ncnc32)[C@H](O)[C@@H]1O [Compound 9e, N,N′-(Hexa-2,4-diyne-1,6-diyl)bis{(2′S)-2′-amino-4′-[5′′-deoxy-5′′-(methylamino)-adenosyl]butanamide}]
[3]
  EC50: 0.111 ± 0.005 µM
  Fold-improvement over monovalent control 11: 1.1-fold

## CCCNC(=O)CCC[N+](C)(C)C[C@H]1O[C@@H](n2cnc3c(N)ncnc32)[C@H](O)[C@@H]1O [Compound 5, reference compound]
[2]
  EC50: 0.15 ± 0.01 µM

Source: article PMC3267017, “Design, synthesis and in vitro evaluation of novel bivalent S-adenosylmethionine analogues” (Bioorganic & Medicinal Chemistry Letters, 2012)
